Data on 20 molecules can be found in patent publication US9273040B2 (Merck Sharp & Dohme Corp., priority 2011, dated 2016).

Test [1] deals with T1, human Nav1.5 channels stably expressed in HEK 293 cells (Homo sapiens, UniProt Q14524).
T1 construct: expressed in transfected cells
As to the kind of experiment: PatchXpress 7000 automated patch-clamp, sodium current. It is filed as cell-based. Particulars: selectivity over Nav1.5. From the text:
(§1) To measure state and use-dependent sodium channel inhibition, test compounds were further characterized in an automated PatchXpress® assay (Molecular Devices). Two voltage-clamp protocols were used. 1) Use-dependent protocol: Cells were held at a membrane potential 20 mV negative to the potential at which ˜50% of the channels are inactivated (V0.5 inact). A train of 30 ms depolarizations to −20 mV was applied to the cells expressing Nav1.7 at a frequency of 10 Hz. […] Data was collected in the absence and presence of drug, and after drug washout. 2) A double-pulse protocol was used to measure inactivated state block. Cells were held at a potential 20 mV negative to V0.5 inact. A 8000 ms pre-pulse 7 mV positive to V0.5 inact was given followed by a hyperpolarizing 2 ms pulse to −120 mV and a 20 ms test pulse to −20 mV. Protocol was applied to cells in the absence, presence of compound and after washout. The temperature of PatchXpress instruments was maintained at 22° C. The following recording solutions were used. Internal solution (mM): 30 CsCl, 5 HEPES, 10 EGTA, 120 CsF, 5 NaF, 2MgCl2, pH=7.3 with CsOH, 324 mosmo. External solution (mM): 120 NMDG, 40 NaCl, 1 KCl, 0.5 MgCl2, 5 HEPES, 2.7 CaCl2, pH=7.5 with NMDG-OH.
(§2) For all electrophysiology experiments, offline analysis was used to correct for current rundown and to determine percent inhibition as a function of drug concentration. IC50 values were determined by fitting to the Hill equation.
(In patch-clamp work, channel activity is measured electrically.)

Test [2] addresses T2, human Nav1.7 channels stably expressed in HEK 293 cells (Homo sapiens, UniProt Q15858).
T2 construct: expressed in transfected cells
The test is described as above. It is filed as cell-based. The conditions noted are these: 22° C., read-out: potency for the Nav 1.7 sodium ion channel (as measured by PatchXpress).
Source text: as §1, §2

pIC50: −log10 of the molar value.

T1 sequence (Q14524 whole entry): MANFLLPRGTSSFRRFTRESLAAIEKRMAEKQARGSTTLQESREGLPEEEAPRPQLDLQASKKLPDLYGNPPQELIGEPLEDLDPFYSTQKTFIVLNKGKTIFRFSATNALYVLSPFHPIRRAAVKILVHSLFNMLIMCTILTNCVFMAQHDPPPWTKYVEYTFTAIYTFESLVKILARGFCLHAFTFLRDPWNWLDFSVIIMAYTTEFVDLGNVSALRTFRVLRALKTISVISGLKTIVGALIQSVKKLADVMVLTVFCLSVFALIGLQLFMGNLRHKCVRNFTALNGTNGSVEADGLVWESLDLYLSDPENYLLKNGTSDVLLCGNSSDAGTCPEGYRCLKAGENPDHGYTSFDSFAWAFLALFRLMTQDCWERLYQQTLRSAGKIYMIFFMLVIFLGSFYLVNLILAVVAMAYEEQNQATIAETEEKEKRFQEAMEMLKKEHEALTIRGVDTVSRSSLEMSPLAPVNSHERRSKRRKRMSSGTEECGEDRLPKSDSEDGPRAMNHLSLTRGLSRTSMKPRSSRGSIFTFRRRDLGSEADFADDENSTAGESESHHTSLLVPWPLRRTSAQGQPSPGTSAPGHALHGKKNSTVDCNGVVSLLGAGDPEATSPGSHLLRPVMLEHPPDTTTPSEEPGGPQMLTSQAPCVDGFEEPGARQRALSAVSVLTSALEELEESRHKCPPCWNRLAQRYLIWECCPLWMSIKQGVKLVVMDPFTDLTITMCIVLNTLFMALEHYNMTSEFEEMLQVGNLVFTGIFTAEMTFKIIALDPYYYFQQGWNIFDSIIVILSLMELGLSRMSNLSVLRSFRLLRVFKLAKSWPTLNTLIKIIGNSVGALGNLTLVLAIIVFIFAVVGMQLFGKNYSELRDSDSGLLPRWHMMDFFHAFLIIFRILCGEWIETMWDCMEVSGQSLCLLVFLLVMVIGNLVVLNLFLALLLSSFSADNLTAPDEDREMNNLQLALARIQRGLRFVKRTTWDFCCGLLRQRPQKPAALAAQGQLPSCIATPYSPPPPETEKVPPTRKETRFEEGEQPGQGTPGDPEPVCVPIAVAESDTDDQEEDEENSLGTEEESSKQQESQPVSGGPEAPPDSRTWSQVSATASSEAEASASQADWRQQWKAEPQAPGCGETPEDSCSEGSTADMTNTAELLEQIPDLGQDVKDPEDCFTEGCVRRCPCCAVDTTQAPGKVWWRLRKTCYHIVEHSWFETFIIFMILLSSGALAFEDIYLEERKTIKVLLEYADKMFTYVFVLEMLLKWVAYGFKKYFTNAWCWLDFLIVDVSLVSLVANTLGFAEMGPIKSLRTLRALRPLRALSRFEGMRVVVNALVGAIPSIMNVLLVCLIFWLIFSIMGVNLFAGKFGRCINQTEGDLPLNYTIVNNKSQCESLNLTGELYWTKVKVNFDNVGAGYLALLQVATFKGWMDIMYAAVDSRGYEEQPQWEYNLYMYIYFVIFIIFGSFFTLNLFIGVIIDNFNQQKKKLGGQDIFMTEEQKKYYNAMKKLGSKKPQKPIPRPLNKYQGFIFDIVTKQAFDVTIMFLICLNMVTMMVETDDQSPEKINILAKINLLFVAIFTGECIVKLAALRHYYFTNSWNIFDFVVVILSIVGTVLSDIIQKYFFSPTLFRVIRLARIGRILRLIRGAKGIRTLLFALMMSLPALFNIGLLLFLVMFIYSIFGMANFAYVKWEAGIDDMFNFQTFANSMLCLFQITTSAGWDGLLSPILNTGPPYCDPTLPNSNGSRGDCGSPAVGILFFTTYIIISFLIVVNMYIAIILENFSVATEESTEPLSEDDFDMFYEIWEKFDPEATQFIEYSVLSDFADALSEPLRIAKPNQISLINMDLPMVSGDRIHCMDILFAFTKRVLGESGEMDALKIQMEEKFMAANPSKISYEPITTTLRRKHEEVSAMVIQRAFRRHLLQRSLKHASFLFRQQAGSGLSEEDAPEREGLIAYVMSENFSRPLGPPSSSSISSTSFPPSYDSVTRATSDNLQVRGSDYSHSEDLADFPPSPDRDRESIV
T2 sequence (Q15858 whole entry): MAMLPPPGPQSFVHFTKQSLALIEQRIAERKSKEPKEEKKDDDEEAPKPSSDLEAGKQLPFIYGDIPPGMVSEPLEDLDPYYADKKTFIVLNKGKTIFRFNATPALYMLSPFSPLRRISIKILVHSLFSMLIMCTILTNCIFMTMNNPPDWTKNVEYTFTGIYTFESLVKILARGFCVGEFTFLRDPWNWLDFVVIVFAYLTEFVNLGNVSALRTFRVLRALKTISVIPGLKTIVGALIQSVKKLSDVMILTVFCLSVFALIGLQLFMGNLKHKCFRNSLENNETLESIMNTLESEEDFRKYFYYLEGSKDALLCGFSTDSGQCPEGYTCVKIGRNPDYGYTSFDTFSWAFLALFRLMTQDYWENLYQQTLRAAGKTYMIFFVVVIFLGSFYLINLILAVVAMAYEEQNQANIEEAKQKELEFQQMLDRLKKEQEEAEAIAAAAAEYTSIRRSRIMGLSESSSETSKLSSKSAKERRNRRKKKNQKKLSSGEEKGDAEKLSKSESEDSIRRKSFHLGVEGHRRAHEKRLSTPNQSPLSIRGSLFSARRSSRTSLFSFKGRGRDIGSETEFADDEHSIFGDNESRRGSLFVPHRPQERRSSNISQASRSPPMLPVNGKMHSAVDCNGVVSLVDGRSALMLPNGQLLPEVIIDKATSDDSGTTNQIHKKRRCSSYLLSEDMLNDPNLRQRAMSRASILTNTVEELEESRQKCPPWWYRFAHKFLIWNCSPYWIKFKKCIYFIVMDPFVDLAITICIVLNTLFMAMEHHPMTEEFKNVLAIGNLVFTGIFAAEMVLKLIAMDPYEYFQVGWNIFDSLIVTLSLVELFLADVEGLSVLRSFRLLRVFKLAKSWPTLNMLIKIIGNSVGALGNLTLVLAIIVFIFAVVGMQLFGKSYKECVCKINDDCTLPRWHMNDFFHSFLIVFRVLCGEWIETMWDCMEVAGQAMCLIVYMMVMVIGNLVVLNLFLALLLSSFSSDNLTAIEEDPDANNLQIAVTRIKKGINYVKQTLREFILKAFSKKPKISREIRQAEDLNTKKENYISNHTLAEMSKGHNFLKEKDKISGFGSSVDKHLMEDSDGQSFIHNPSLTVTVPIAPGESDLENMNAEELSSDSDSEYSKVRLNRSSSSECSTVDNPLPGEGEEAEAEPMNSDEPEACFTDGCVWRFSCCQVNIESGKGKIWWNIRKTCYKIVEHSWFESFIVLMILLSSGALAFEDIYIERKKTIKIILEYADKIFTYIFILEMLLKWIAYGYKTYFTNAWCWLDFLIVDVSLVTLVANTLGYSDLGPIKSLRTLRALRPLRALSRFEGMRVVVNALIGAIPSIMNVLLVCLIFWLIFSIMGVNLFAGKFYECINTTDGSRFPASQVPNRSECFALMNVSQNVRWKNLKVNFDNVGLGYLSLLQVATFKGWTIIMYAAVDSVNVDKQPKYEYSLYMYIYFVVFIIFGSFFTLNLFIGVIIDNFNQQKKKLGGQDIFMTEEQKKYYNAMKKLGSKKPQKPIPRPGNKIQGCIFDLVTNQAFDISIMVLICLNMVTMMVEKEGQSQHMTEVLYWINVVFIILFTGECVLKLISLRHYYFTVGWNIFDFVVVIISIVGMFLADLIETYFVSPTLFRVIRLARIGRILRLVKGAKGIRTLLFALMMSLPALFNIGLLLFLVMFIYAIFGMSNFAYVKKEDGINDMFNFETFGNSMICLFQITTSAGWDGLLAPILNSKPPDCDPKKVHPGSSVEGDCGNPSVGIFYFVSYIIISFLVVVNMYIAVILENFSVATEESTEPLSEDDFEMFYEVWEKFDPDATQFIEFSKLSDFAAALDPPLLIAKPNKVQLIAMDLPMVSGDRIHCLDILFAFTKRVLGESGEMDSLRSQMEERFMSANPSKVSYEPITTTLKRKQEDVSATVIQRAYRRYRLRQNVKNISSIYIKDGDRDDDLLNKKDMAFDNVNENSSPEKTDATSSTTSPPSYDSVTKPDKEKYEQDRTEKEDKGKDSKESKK

Turning to `CC1(C)CC(n2c(=O)oc3cc(S(=O)(=O)Nc4ncns4)c(F)cc32)c2ccccc2O1` (stereo not shown) [Compound 39-7, 3-(2,2-dimethyl-3,4-dihydro-2H-chromen-4-yl)-5-fluoro-2-oxo-N-1,2,4-thiadiazol-5-yl-2,3-dihydro-1,3-benzoxazole-6-sulfonamide], the “ratio of Nav 1.5:Nav 1.7 potency, determined by PatchXpress measurement” value (“ratio of Nav 1.5:Nav 1.7 potency” for short) in test [1] worked out at 137. For the same molecule, the pIC50 in test [2] was 6.66.

On to `O=c1oc2cc(S(=O)(=O)Nc3nccs3)c(F)cc2n1Cc1cccc2c1CNCC2F` (single isomer, unassigned) [Compound 43-28, (S or R)-5-fluoro-3-[(4-fluoro-1,2,3,4-tetrahydroisoquinolin-8-yl)methyl]-2-oxo-N-1,3-thiazol-2-yl-2,3-dihydro-1,3-benzoxazole-6-sulfonamide], for which the “ratio of Nav 1.5:Nav 1.7 potency” value in test [1] is listed as 684. The pIC50 in test [2] was 6.92.

As for `O=c1oc2cc(S(=O)(=O)Nc3nccs3)c(F)cc2n1C1CCCc2ccc(F)cc21` (stereo not shown) [Compound 43-12, 5-fluoro-3-(7-fluoro-1,2,3,4-tetrahydronaphthalen-1-yl)-2-oxo-N-1,3-thiazol-2-yl-2,3-dihydro-1,3-benzoxazole-6-sulfonamide], the “ratio of Nav 1.5:Nav 1.7 potency” value in test [1] is on record as 145. The pIC50 in test [2] was 7.52.

On to `C[C@H](c1ccccc1C#Cc1cncn1C)n1c(=O)oc2cc(S(=O)(=O)Nc3ncns3)c(F)cc21` [Compound 17-8, 5-fluoro-3-[(1R)-1-{2-[(1-methyl-1H-imidazol-5-yl)ethynyl]phenyl}ethyl]-2-oxo-N-1,2,4-thiadiazol-5-yl-2,3-dihydro-1,3-benzoxazole-6-sulfonamide], for which the “ratio of Nav 1.5:Nav 1.7 potency” value in test [1] amounted to 27. Moreover, the pIC50 in test [2] is 7.19.

`O=c1oc2cc(S(=O)(=O)Nc3nccs3)c(F)cc2n1C1CCCc2c(F)cc(F)cc21` (stereo not shown) [Compound 43-9, 3-(5,7-difluoro-1,2,3,4-tetrahydronaphthalen-1-yl)-5-fluoro-2-oxo-N-1,3-thiazol-2-yl-2,3-dihydro-1,3-benzoxazole-6-sulfonamide]: in test [1], the “ratio of Nav 1.5:Nav 1.7 potency” value is given as 95. In test [2], the pIC50 was 7.17.

`Cn1cc2cccc(Cn3c(=O)oc4cc(S(=O)(=O)Nc5ncns5)c(F)cc43)c2n1` [Compound 11-11, 5-fluoro-3-[(2-methyl-2H-indazol-7-yl)methyl]-2-oxo-N-1,2,4-thiadiazol-5-yl-2,3-dihydro-1,3-benzoxazole-6-sulfonamide]: the “ratio of Nav 1.5:Nav 1.7 potency” value in test [1] is 81. Moreover, the pIC50 in test [2] is 6.31.

On to `C[C@H](c1ccccc1C#CC1CCCCN1)n1c(=O)oc2cc(S(=O)(=O)Nc3ncns3)c(F)cc21` (stereo partly drawn) [Compound 17-22, 5-fluoro-2-oxo-3-{(1R)-1-[2-(piperidin-2-ylethynyl)phenyl]ethyl}-N-1,2,4-thiadiazol-5-yl-2,3-dihydro-1,3-benzoxazole-6-sulfonamide], for which the “ratio of Nav 1.5:Nav 1.7 potency” value in test [1] is 1456. The pIC50 in test [2] was 7.89.

In the case of `NC1Cc2cccc(Cn3c(=O)oc4cc(S(=O)(=O)Nc5ncns5)ccc43)c2C1` (racemic) [Compound 23-9, (+/−)-3-[(2-amino-2,3-dihydro-1H-inden-4-yl)methyl]-2-oxo-N-1,2,4-thiadiazol-5-yl-2,3-dihydro-1,3-benzoxazole-6-sulfonamide], the “ratio of Nav 1.5:Nav 1.7 potency” value in test [1] came to 167. In test [2], the pIC50 is 6.74.

As to `Cc1n[nH]cc1-c1cccc([C@@H](C)n2c(=O)oc3cc(S(=O)(=O)Nc4nccs4)c(F)cc32)c1` [Compound 43-24, 5-fluoro-3-{(1R)-1-[3-(3-methyl-1H-pyrazol-4-yl)phenyl]ethyl}-2-oxo-N-1,3-thiazol-2-yl-2,3-dihydro-l,3-benzoxazole-6-sulfonamide], the “ratio of Nav 1.5:Nav 1.7 potency” value in test [1] is given as 33. In addition, the pIC50 in test [2] is 6.99.

As to `O=c1oc2cc(S(=O)(=O)Nc3nccs3)c(F)cc2n1C1CC2(CCC2)Oc2ccc(F)cc21` (stereo not shown) [Compound 43-11, 5-fluoro-3-(6-fluoro-3,4-dihydrospiro[chromene-2,1′-cyclobutan]-4-yl)-2-oxo-N-1,3-thiazol-2-yl-2,3-dihydro-1,3-benzoxazole-6-sulfonamide], the “ratio of Nav 1.5:Nav 1.7 potency” value in test [1] was found to be 196. In addition, the pIC50 in test [2] was 7.39.

For the molecule `Cc1n[nH]cc1-c1cccc([C@@H](C)n2c(=O)oc3cc(S(=O)(=O)Nc4ncns4)c(F)cc32)c1` [Compound 28-5, 5-fluoro-3-{(1R)-1-[3-(3-methyl-1H-pyrazol-4-yl)phenyl]ethyl}-2-oxo-N-1,2,4-thiadiazol-5-yl-2,3-dihydro-1,3-benzoxazole-6-sulfonamide], the “ratio of Nav 1.5:Nav 1.7 potency” value in test [1] worked out at 64. Further, in test [2], the pIC50 was 7.32.

With `C[C@H](c1ccccc1CN1CCC(F)C1)n1c(=O)oc2cc(S(=O)(=O)Nc3ncns3)c(F)cc21` (stereo partly drawn) [Compound 18-4, 5-fluoro-3-[(1R)-1-{2-[(3-fluoropyrrolidin-1-yl)methyl]phenyl}ethyl]-2-oxo-N-1,2,4-thiadiazol-5-yl-2,3-dihydro-1,3-benzoxazole-6-sulfonamide], the “ratio of Nav 1.5:Nav 1.7 potency” value in test [1] was 82. Besides, the pIC50 in test [2] was 6.88.

Take `C[C@H](c1ccccc1C1=CCNCCC1)n1c(=O)oc2cc(S(=O)(=O)Nc3ncns3)c(F)cc21` [Compound 16-6, 5-fluoro-2-oxo-3-{(1R)-1-[2-(2,5,6,7-tetrahydro-1H-azepin-4-yl)phenyl]ethyl}-N-1,2,4-thiadiazol-5-yl-2,3-dihydro-1,3-benzoxazole-6-sulfonamide]: the “ratio of Nav 1.5:Nav 1.7 potency” value in test [1] is recorded as 1692. Besides, in test [2], the pIC50 was 7.74.

For the molecule `C[C@H](c1ccccc1C1(O)CNC1)n1c(=O)oc2cc(S(=O)(=O)Nc3nccs3)c(F)cc21` [Compound 43-22, 5-fluoro-3-{(1R)-1-[2-(3-hydroxyazetidin-3-yl)phenyl]ethyl}-2-oxo-N-1,3-thiazol-2-yl-2,3-dihydro-1,3-benzoxazole-6-sulfonamide], in test [1], the “ratio of Nav 1.5:Nav 1.7 potency” value was determined as 703. For the same molecule, the pIC50 in test [2] is 7.21.

`COC(=O)NC1CCc2cccc(Cn3c(=O)oc4cc(S(=O)(=O)Nc5ncns5)c(F)cc43)c2C1` (single isomer, unassigned) [Compound 23-1, methyl (8-((6-(N-(1,2,4-thiadiazol-5-yl)sulfamoyl)-5-fluoro-2-oxobenzo[d]oxazol-3(2H)-yl)methyl)-1,2,3,4-tetrahydronaphthalen-2-yl)carbamate]: in test [1], the “ratio of Nav 1.5:Nav 1.7 potency” value stood at 71. Further, the pIC50 in test [2] is 6.91.

Turning to `O=c1oc2cc(S(=O)(=O)Nc3ncns3)c(F)cc2n1Cc1cccc2c1CC(N1CCCC1C(F)(F)F)CC2` (racemic) [Compound 23-11, (+/−)-5-fluoro-2-oxo-N-1,2,4-thiadiazol-5-yl-3-({7-[2-(trifluoromethyl)pyrrolidin-1-yl]-5,6,7,8-tetrahydronaphthalen-1-yl}methyl)-2,3-dihydro-1,3-benzoxazole-6-sulfonamide], the “ratio of Nav 1.5:Nav 1.7 potency” value in test [1] is 73. Besides, the pIC50 in test [2] was 6.94.

For the molecule `C[C@H](c1cccc(-c2ccc(O)nc2)c1)n1c(=O)oc2cc(S(=O)(=O)Nc3ncns3)c(F)cc21` [Compound 28-4, 5-fluoro-3-{(1R)-1-[3-(6-hydroxypyridin-3-yl)phenyl]ethyl}-2-oxo-N-1,2,4-thiadiazol-5-yl-2,3-dihydro-1,3-benzoxazole-6-sulfonamide], the “ratio of Nav 1.5:Nav 1.7 potency” value in test [1] is 181. Moreover, in test [2], the pIC50 was 6.97.

In the case of `C[C@H](c1ccccc1C#CC1CCNC1)n1c(=O)oc2cc(S(=O)(=O)Nc3ncns3)c(F)cc21` (stereo partly drawn) [Compound 17-14, 5-fluoro-2-oxo-3-{(1R)-1-[2-(pyrrolidin-3-ylethynyl)phenyl]ethyl}-N-1,2,4-thiadiazol-5-yl-2,3-dihydro-1,3-benzoxazole-6-sulfonamide], the “ratio of Nav 1.5:Nav 1.7 potency” value in test [1] turned out to be 1055. In addition, the pIC50 in test [2] is 7.47.

In the case of `C[C@H](c1ccccc1C1(F)CNC1)n1c(=O)oc2cc(S(=O)(=O)Nc3ncns3)c(F)cc21` [Compound 32-6, (R)-5-Fluoro-3-(1-(2-(3-fluoroazetidin-3-yl)phenyl)ethyl)-2-oxo-N-(1,2,4-thiadiazol-5-yl)-2,3-dihydrobenzo[d]oxazole-6-sulfonamide], in test [1], the “ratio of Nav 1.5:Nav 1.7 potency” value stood at 1333. The pIC50 in test [2] is 7.74.

Consider `O=c1oc2cc(S(=O)(=O)Nc3ncns3)c(F)cc2n1Cc1cccc2c1CC(N1CCS(=O)(=O)CC1)CC2` (single isomer, unassigned) [Compound 23-6, (R or S)-3-{[7-(1,1-dioxidothiomorpholin-4-yl)-5,6,7,8-tetrahydronaphthalen-1-yl]methyl}-5-fluoro-2-oxo-N-1,2,4-thiadiazol-5-yl-2,3-dihydro-1,3-benzoxazole-6-sulfonamide], for which the “ratio of Nav 1.5:Nav 1.7 potency” value in test [1] worked out at 146. In addition, the pIC50 in test [2] was 6.69.
